Results as given in patent publication US20190241569A1, “3-(ARYL OR HETEROARYL) METHYLENEINDOLIN-2-ONE DERIVATIVES AS INHIBITORS OF CANCER STEM CELL PATHWAY KINASES FOR THE TREATMENT OF CANCER” (Boston Biomedical, Inc., priority 2013, published 2019).

Experiments:
Type in all cases: cell-based
A549 = assay: Bulk cancer cells, Cell Titer-Glo 72 hours (Test Example 2); details: Homo sapiens
Method: (§1) Tubes of 3× drug (60 uM in 500 uL complete media) were prepared from 5 mM stock solutions in DMSO. […] To treat cells, 50 uL of drug from the dilution plate was removed and added to the cell plates. […] Cells were harvested 72 hours after drug addition using Cell Titer-Glo (Promega) and luminescence measured on a plate reader.

ACHN = assay: as above; details: Homo sapiens, ACHN, 72 h
Method: as §1

FaDu = assay: as above; details: Homo sapiens
Method: as §1

FaDu CSC = assay: Cancer stem cells, Cell Titer-Glo 72 hours (Test Example 3); details: Homo sapiens, FaDu, 72 h
A549 CSC = assay: as above; details: Homo sapiens
ACHN CSC = assay: as above; details: Homo sapiens, ACHN, 72 h

Row | Compound | IC50 (A549) | IC50 (ACHN) | IC50 (FaDu) | IC50 (FaDu CSC) | IC50 (A549 CSC) | IC50 (ACHN CSC)
1 | Cc1cc(C)c(/C=C2\C(=O)Nc3ccc(-c4n[nH]c5ccccc45)cc32)[nH]1 [Example 231] | 6.45 µM | 8.73 µM | 4.43 µM | 5.33 µM | 7.28 µM | 3.1 µM
2 | CCN(CC)CCNC(=O)c1c(C)[nH]c(/C=C2\C(=O)Nc3ccc(-c4cnccn4)cc32)c1C [Example 180] | 10.6 µM | 10.1 µM | 6.62 µM | 0.23 µM | 13.2 µM | 2.65 µM
3 | CCN(CC)CCNC(=O)c1c(C)[nH]c(/C=C2\C(=O)Nc3ccc(-c4cnc5cccnn45)cc32)c1C [Example 179] | 3.66 µM | 3.64 µM | 1.74 µM | 0.06 µM | 6.64 µM | 2.73 µM
4 | CCN(CC)CCNC(=O)c1c(C)[nH]c(/C=C2\C(=O)Nc3ccc(-c4ncccn4)cc32)c1C [Example 182] | 15.4 µM | 3.5 µM | 6.02 µM | 0.09 µM | 18 µM | 1.15 µM
5 | Cc1[nH]c(/C=C2\C(=O)Nc3ccc(-c4csc(-c5ccccc5)n4)cc32)c(C)c1S(=O)(=O)N1CCOCC1 [Example 147] | 7.28 µM | 10.7 µM | 11.4 µM | 0.21 µM | 3.73 µM | 0.56 µM
6 | CCN(CC)CCNC(=O)c1c(C)[nH]c(/C=C2\C(=O)Nc3ccc(-c4ccc(C(=O)O)s4)cc32)c1C [Example 209] | 2.2 µM | 2.04 µM | 1.21 µM | 4.3 µM | 8.82 µM | 2.28 µM
7 | CCN(CC)CCNC(=O)c1c(C)[nH]c(/C=C2\C(=O)Nc3ccc(-c4csc(-n5ccnc5)n4)cc32)c1C [Example 196] | 6.16 µM | 9.57 µM | 5.57 µM | 21.7 µM | 18.8 µM | 2.99 µM
8 | O=C1Nc2ccc(-c3csc(C4CCNCC4)n3)cc2/C1=C/c1cc2c([nH]1)CCCC2 [Example 157] | 9.39 µM | 18.8 µM | 21.1 µM | 12 µM | 22.1 µM | 2.68 µM
9 | CCN(CC)CCNC(=O)c1c(C)[nH]c(/C=C2\C(=O)Nc3ccc(-c4cc(-c5ccccc5)ccn4)cc32)c1C [Example 198] | 1.5 µM | 2.41 µM | 2.58 µM | 9.67 µM | 2 µM | 0.9 µM
10 | Cc1cc(C)c(/C=C2\C(=O)Nc3ccc(-c4ccc(O)cc4C)cc32)[nH]1 [Example 261] | 12.5 µM | 14.9 µM | 14.7 µM | 14.4 µM | 36.8 µM | 21.1 µM
11 | Cc1cc(C)c(/C=C2\C(=O)Nc3ccc(-c4csc(-n5ccnc5)n4)cc32)[nH]1 [Example 215] | 9.31 µM | 8.84 µM | 14.5 µM | 37.4 µM | 35 µM | 2.72 µM
12 | COC(=O)c1c(C)[nH]c(/C=C2\C(=O)Nc3ccc(-c4csc(-c5ccncc5)n4)cc32)c1C [Example 145] | 9.61 µM | 12.6 µM | 18.6 µM | 6.74 µM | 4.8 µM | 6.16 µM
13 | CCN(CC)CCNC(=O)c1c(C)[nH]c(/C=C2\C(=O)Nc3cc(-c4cccc5ncccc45)ccc32)c1C [Example 258] | 2.88 µM | 2.66 µM | 4.83 µM | 2.64 µM | 8.61 µM | 0.42 µM
14 | CCN(CC)CCNC(=O)c1c(C)[nH]c(/C=C2\C(=O)Nc3ccc(-c4ncccc4C)cc32)c1C [Example 203] | 4.14 µM | 4.15 µM | 7.67 µM | 20 µM | 13.1 µM | 1.88 µM
15 | CCN(CC)CCNC(=O)c1c(C)[nH]c(/C=C2\C(=O)Nc3ccc(-c4ccc(OC)cn4)cc32)c1C [Example 188] | 10.8 µM | 6.44 µM | 7.01 µM | 0.16 µM | 8.89 µM | 1.08 µM
16 | CCN(CC)CCNC(=O)c1c(C)[nH]c(/C=C2\C(=O)Nc3ccc(-c4ccc5c(c4)CC(=O)N5)cc32)c1C [Example 270] | 19.7 µM | 18.9 µM | 25.4 µM | 15.5 µM | 29.2 µM | 20.8 µM
17 | CCN(CC)CCNC(=O)c1c(C)[nH]c(/C=C2\C(=O)Nc3ccc(-c4ccc(C#N)c(F)c4)cc32)c1C [Example 269] | 14.5 µM | 13.3 µM | 14 µM | 3.48 µM | 12 µM | 1.71 µM
18 | CCN(CC)CCN(C)C(=O)c1c(C)[nH]c(/C=C2\C(=O)Nc3ccc(-c4csc(-c5ccccc5)n4)cc32)c1C [Example 129, (Z)-N-(2-(diethylamino)ethyl)-N,2,4-trimethyl-5-((2-oxo-5-(2-phenylthiazol-4-yl)indolin-3-ylidene)methyl)-1H-pyrrole-3-carboxamide] | 9.94 µM | 11.3 µM | 18.3 µM | 3.6 µM | 10.5 µM | 0.69 µM
19 | CCN(CC)CCNC(=O)c1c(C)[nH]c(/C=C2\C(=O)Nc3ccc(-c4ccccn4)cc32)c1C [Example 183] | 7.23 µM | 2.26 µM | 2.56 µM | 0.18 µM | 5.45 µM | 1.06 µM

Results, then the compound that gave them:

Row | IC50 (A549) | IC50 (ACHN) | IC50 (FaDu) | IC50 (FaDu CSC) | IC50 (A549 CSC) | IC50 (ACHN CSC) | Compound
20 | 5.99 µM | 2.32 µM | 4.22 µM | 0.31 µM | 12.2 µM | 0.14 µM | Cc1ccc(-c2nc(-c3ccc4c(c3)/C(=C/c3[nH]c(C)c(C(=O)NCCN5CCCC5)c3C)C(=O)N4)cs2)cc1 [Example 103]
21 | 3.18 µM | 5.05 µM | 2.13 µM | 0.03 µM | 13.9 µM | 0.71 µM | CCN(CC)CCNC(=O)c1c(C)[nH]c(/C=C2\C(=O)Nc3ccc(-c4nccc5ccccc45)cc32)c1C [Example 187]
22 | 7.33 µM | 3.66 µM | 4.55 µM | 10.1 µM | 18 µM | 0.55 µM | CCN(CC)CCNC(=O)c1c(C)[nH]c(/C=C2\C(=O)Nc3ccc(-c4cncnc4)cc32)c1C [Example 207]
23 | 1.11 µM | 2.48 µM | 3.85 µM | 3.53 µM | 8.74 µM | 4.23 µM | CCN(CC)CCNC(=O)CCc1c(C)[nH]c(/C=C2\C(=O)Nc3ccc(-c4csc(-c5ccccc5)n4)cc32)c1C [Example 149]
24 | 3.71 µM | 7.88 µM | 4.68 µM | 5.11 µM | 6.64 µM | 0.62 µM | CCN(CC)CCNC(=O)c1c(C)[nH]c(/C=C2\C(=O)Nc3ccc(-c4csc(-n5cccn5)n4)cc32)c1C [Example 195]
25 | 3.79 µM | 4.58 µM | 3.17 µM | 3.42 µM | 6.66 µM | 0.64 µM | CCN(CC)CCNC(=O)c1c(C)[nH]c(/C=C2\C(=O)Nc3ccc(-c4cnsc4)cc32)c1C [Example 200]
26 | 5.55 µM | 4.12 µM | 5.16 µM | 0.76 µM | 2.04 µM | 0.1 µM | O=C1Nc2ccc(-c3csc(C4CCNCC4)n3)cc2/C1=C/c1cc2ccccc2[nH]1 [Example 168]
27 | 3.65 µM | 4.11 µM | 4.46 µM | 1.46 µM | 3.16 µM | 1.63 µM | CCN(CC)CCNC(=O)c1c(C)[nH]c(/C=C2\C(=O)Nc3cc(-c4ccc(C(=O)c5ccccc5)cc4)ccc32)c1C [Example 264]
28 | 8.13 µM | 5.73 µM | 2.66 µM | 0.04 µM | 42.3 µM | 5.59 µM | CCN(CC)CCNC(=O)c1c(C)[nH]c(/C=C2\C(=O)Nc3ccc(-c4cnc5ccccc5n4)cc32)c1C [Example 185]
29 | 6.51 µM | 2.92 µM | 3.05 µM | 0.22 µM | 3.38 µM | 1.16 µM | CCN(CC)CCNC(=O)c1c(C)[nH]c(/C=C2\C(=O)Nc3ccc(-c4ccc(C)cn4)cc32)c1C [Example 184]
30 | 5.8 µM | 2.6 µM | 5.3 µM | 0.78 µM | 2.93 µM | 0.17 µM | CCN(CC)CCNC(=O)c1c(C)[nH]c(/C=C2\C(=O)Nc3cc(-c4csc(-n5cccn5)n4)ccc32)c1C [Example 254]
31 | 7.48 µM | 7.14 µM | 2.63 µM | 0.07 µM | 6.84 µM | 1.41 µM | CCN(CC)CCNC(=O)c1c(C)[nH]c(/C=C2\C(=O)Nc3ccc(-c4ncccc4OC)cc32)c1C [Example 189]
32 | 7.07 µM | 11.6 µM | 6.81 µM | 16.2 µM | 9.85 µM | 2.14 µM | CCN(CC)CCNC(=O)c1c(C)[nH]c(/C=C2\C(=O)Nc3ccc(-c4ccncc4)cc32)c1C [Example 208]
33 | 2.3 µM | 7.41 µM | 4.92 µM | 3.96 µM | 6.45 µM | 0.63 µM | CCN(CC)CCNC(=O)c1c(C)[nH]c(/C=C2\C(=O)Nc3ccc(-c4ccc(-c5ccccc5)nc4)cc32)c1C [Example 194]
34 | 5.86 µM | 4.65 µM | 4.63 µM | 17.6 µM | 17.2 µM | 3.44 µM | CCN(CC)CCNC(=O)c1c(C)[nH]c(/C=C2\C(=O)Nc3ccc(-c4cnc5ccccn45)cc32)c1C [Example 192]
35 | 7.07 µM | 10.9 µM | 7.45 µM | 2.24 µM | 42.6 µM | 6.97 µM | CCN(CC)CCNC(=O)c1c(C)[nH]c(/C=C2\C(=O)Nc3cc(-c4cnc5ccccc5n4)ccc32)c1C [Example 251]
